What was measured:
[1] = test system: MDA-MB-231 human breast carcinoma xenograft tumor; test: Contrast-enhanced MR imaging of tumor-bearing mice after injection of polymer conjugates; format: in vivo, female athymic nu/nu mice; settings: for Contrast in all tissues including tumor, heart and liver compared to pre-contrast: 5 minutes post injection; for Increase in signal intensity of tumor as compared to precontrast: 2 hours post injection, semi-quantitative evaluation, 6 mice per group
Method: Female athymic nu/nu mice were purchased from NCI (Frederick, Md.) at the age of 6 weeks. To generate tumor models, each mouse was injected subcutaneously with 2×10^6 MB-231 cells in 100 μl of culture media mixed with 100 μl of BD MATRIGEL, a solubulized basement membrane preparation extracted from EHS mouse sarcoma, in the flank region. Magnetic resonance imaging and photodynamic therapy studies were carried out at an average tumor size of 25-40 mm^3.
MR imaging was performed on a Siemens Trio 3T MRI scanner. The animals were anesthetized by intra-peritoneal or intra-muscular injection of the anesthetic (mixture of ketamine—80 mg/kg body weight and xylazine—12 mg/kg body weight).
For imaging purposes, the animals were placed in the human wrist coil and pre-contrast images (prior to the injection of the polymer chelate system containing the drug and the contrast agent) were obtained using a 3D FLASH (Fast Low Angle Shot) sequence.
After obtaining the pre-contrast images, the macromolecular complexes were injected at a dose of 0.09 mmol Gd/kg body weight and 6 mg/kg of Mce6 by tail vein injection. Image acquisition was set at 5, 30, 60, 120 minutes and 24 hours post injection. Animal imaging was performed using the multi-phase T1 weighted sequence. The repetition time was about 6 milliseconds to 2 milliseconds, respectively; consistent with the 4 to 8 cm FIV (field of view) and 0.5 mm slice thickness chosen for each animal. The imaging volume was acquired before injection and in rapid succession after injection. Each acquisition required about 30 seconds.
MR imaging. […] FIG. 7 and FIG. 8 show 2D coronal MR images through tumor and heart respectively. The upper panel of FIG. 7 represents mice with Pol1 and the lower panel upper represents mice with Pol2. The upper panel of FIG. 8 represents mice with Pol1 and the lower panel represents mice with Pol2. […] The higher signal in heart may be due to high molecular weight fractions of the control polymer.
Increase in Signal intensity of tumor for both groups as compared to precontrast at 2 hours is 100%. Signal intensity at 18 hours post injection was at least 30% higher than precontrast for both Pol1 and Pol2. Quantitative evaluation of signal intensities using IDL was performed to corroborate the data obtained from semi-quantitative analysis.

[2] = T1 relaxivity of polymer complexes; format: physicochemical; settings: Siemens Trio 3T scanner, inversion recovery sequence
[3] = test system: MDA-MB-231 human breast carcinoma xenograft tumor; test: Efficiency of photodynamic therapy (650 nm laser irradiation of tumor); format: in vivo, female athymic nu/nu mice; settings: for Tumor volume after photodynamic therapy: FIG. 11, irradiation 650 nm, 6 mice per group
Method: Molecular weight determination was carried out by Size Exclusion Chromatography (SEC) on an AKTA FPLC system with a Superdex 200/Superose 6 column equipped with UV and refractive index detectors (Amersham Biosciences Corp., Piscataway, N.J.). The FPLC columns were calibrated with poly[N-(2-hydroxypropyl)methacrylamide] standards. ^1H NMR spectra were acquired on a Varian INOVA 400 at 400 MHz at 25° C. ESI-MS spectra were acquired on a PE Sciex API III Mass Spectrometer at the University of Utah Mass Spectrometry and Proteonomic Core Facility. Meso chlorin content was determined on Cary Win UV-Vis spectrometer. Gd content was determined using Inductively Coupled argon Plasma-Optical Emission Spectrometer (ICP-OES) (Perkin Elmer, Norwalk, Conn., Optima 3100XL). T1 relaxivity measurements for the final conjugates were acquired on a Siemens Trio 3T MRI scanner using standard inversion recovery sequence. Photodynamic therapy was carried out via Diode Odyssey laser (650nm) (CAO Group, UT).
Female athymic nu/nu mice were purchased from NCI (Frederick, Md.) at the age of 6 weeks. […] Magnetic resonance imaging and photodynamic therapy studies were carried out at an average tumor size of 25-40 mm^3.
Then the tumor was irradiated, 2 hours and 18 hours post-injection, using light of wavelength 650 nm (Denlaser) with an input of 220 mW/cm^2 energy and 0.5 mm aperture for irradiation. The time of irradiation was 15 minutes. The mice were then kept away from direct light to avoid extraneous irradiation and the reduction in tumor volume was measured.
Efficiency of Photodynamic therapy.

Row | Substance | Contrast in all tissues including tumor, heart and liver compared to pre-contrast [1] | Increase in signal intensity of tumor as compared to precontrast [1] [%] | Relaxivity [2] [mM − 1 sec − 1] | Tumor volume after photodynamic therapy [3] | Mice with tumors larger than 10% of the body weight, sacrificed ([3]; out of 6 mice in the group) | Mice surviving for the time period of the experiment ([3]; 90 days, group of 6 mice)
1 | Gd (III)-DOTA-linker-PLGA [Pol2] | increased contrast | 100 | 8.33 | rapid increase in tumors | 5 | –
2 | Gd (III)-DOTA-linker-PLGA-Mce6 [Pol1] | increased contrast | 100 | 8.46 | reduction in tumor volume or slowed tumor growth | – | 4 out of 6
